According to patent US9139551B2, “Preparation of a new class of water-soluble ammonium 2,3-dihydroxy-5-((2R,3R)-3,5,7-trihydroxy-4-oxochroman-2-yl) phenolates and their biological activity of alcohol elimination” (priority 2014, dated 2015):

Experiments:
Balb/C mice [1] = assay: Anti-alcoholism test (agent 30 min after alcohol); assay type: in vivo; conditions: 2 mg/kg gavage 30 min after 30% ethanol
From the text: Anti-Alcoholism Tests • Groups design and treatment before experiment are as the same as that in Deintoxication test. […]

Balb/C mice [2] = assay: Deintoxication test (agent 30 min before alcohol); conditions: 2 mg/kg gavage 30 min before 30% ethanol
Balb/C mice [3] = assay: Climbing net test; assay type: in vivo; conditions: 2 mg/kg gavage 30 min before alcohol
Protocol: Climbing Net Test • Groups design and treatment before experiment are as the same as that in deintoxication test. […] 30 minutes later all mice administrated alcohol (liquid Erguotou, ethonol concentration was diluted to 30%) 0.2 mL/kg BW and placed on a vertical metal net and measured the time when mice climbed on net.

Balb/C mice [4] = assay: Plasma EtOH concentration assay; assay type: in vivo; conditions: intragastric 2 mg/kg
Protocol: Plasma EtOH Concentration Assay. • Blood samples from the tail vein of mice at different time points (0, 15, 30, 45, 60, 90, 120, 240, 480 and 720 minutes) after EtOH (30% ethanol, 0.2 ml/kg bw) or TDHM (2 mg/kg bw), PDHM (2 mg/kg bw) or DHM (2 mg/kg bw) gavage were collected for plasma EtOH concentrations (plasma [EtOH]) assays. (“BW” or “bw”: body weight) • Briefly, the Balb/C mice were put into a restraint tube and the tail was warmed at 37° C. The tail vein at the tip of the tail was punched with a sharp blade. Approximately 0.2 ml venous blood was dropped to a capillary blood collection tube containing lithium heparin (Ram Scientific). Blood samples were centrifuged at 2500 rpm for 20 min. The supernatant was collected and stored at −80° C. until assay. The EtOH content of each blood sample was measured in duplicate along with EtOH standards using the alcohol oxidase reaction procedures (EnzyChrom™ Ethanol Acid Assay Kit, ECET-100) (Liang et al., 2007). The sample preparations were the same as described above.

**Q.** Which solubility (Solubility in water) does the source give for O=C1c2c(O)cc(O)cc2O[C@H](c2cc(O)c(O)c(O)c2)[C@H]1O [DHM, dihydromyricetin, reference compound] here?
**A.** The solubility was at most 264 µg/mL.

**Q.** What about the “Sleep time M ± SD” value (Balb/C mice [1]) of the same compound?
**A.** Its value is 138.17 ± 33.73 min.

**Q.** What about the “Tolerance time M ± SD” value (Balb/C mice [1]) of the same compound?
**A.** Its value is 18.29 ± 10.07 min.

**Q.** And the Rate of drunk (Balb/C mice [1]; 20 mice)?
**A.** Its Rate of drunk is 0%.

**Q.** And the “Sleep time M ± SD” value (Balb/C mice [2])?
**A.** Its value is 135.71 ± 25.25 min.

**Q.** And the “Tolerance time M ± SD” value (Balb/C mice [2])?
**A.** The value was 25 ± 7.29 min.

**Q.** What about the Dead number (Balb/C mice [2]; 20 mice) of the same compound?
**A.** Its Dead number is 2 piece.

**Q.** What about the Rate of drunk (Balb/C mice [2]; 20 mice) of the same compound?
**A.** The Rate of drunk was 10%.

**Q.** What about the “climbing time vs normal control mice” value (Balb/C mice [3]) of the same compound?
**A.** Its value is “significantly prolonged”.

**Q.** And the climbing (Balb/C mice [3]; vertical metal net)?
**A.** The climbing was 329.75 ± 76.46 min.

**Q.** And the “blood alcohol concentration vs control group treated with saline” value (Balb/C mice [4])?
**A.** The value was “significantly decreased”.
